Assay: In vitro 5-FU release kinetics
Format: physicochemical
Conditions: from hydrogel of 1 wt % PAMAM G5-(NH2)128 and PEG diacrylate575 (FIG. 9)
Experimental: In Vitro Drug Release Kinetics. Drug release was performed on 5-FU loaded into DH-G5-0.5% (5-FU/DH-G5-0.5%). Briefly, Free 5-FU (300 μg) in PBS or DH-G5-0.5% containing 300 μg of 5-FU was transferred to dialysis bags (MWCO=500-1000 Da) and suspended in 30 mL of PBS in 50-mL centrifuge tubes. The tubes were maintained at 37° C. At predetermined time intervals up to 24 h, 1 mL of medium outside the dialysis bag was withdrawn, and the amount of drug released into the medium was analyzed on HPLC against a standard curve of 5-FU. After each sampling, 1 mL of fresh PBS was added to maintain a constant volume and sink condition. All experiments were performed in triplicate.

O=c1[nH]cc(F)c(=O)[nH]1 [fluorouracil]
drug released in the first 3 hours: about 70%
